# In PubChem BioAssay (NCI):
#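 Briefly, cells in 96-well plates were exposed to five compound concentrations for 48 h, and endpoints were estimated by linear interpolation. Definition used: TGI = concentration required for complete inhibition of growth.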
# Columns and labels:
# Assay in all cases: inhibition of tumour cell growth, NCI panel, 48 h
# [1] = tested on: RPMI-8226 leukemia
# [2] = tested on: HOP-62 NSCLC
# [3] = tested on: OVCAR-5 ovarian
# [4] = tested on: MDA-N
# [5] = tested on: UACC-257 melanoma
# [6] = tested on: EKVX NSCLC
# [7] = tested on: MDA-MB-435
# [8] = tested on: SW-620 colon
# [9] = tested on: T-47D breast
# [10] = tested on: SF-268 CNS
# [11] = tested on: NCI-H522 lung
# [12] = tested on: NCI/ADR-RES ovarian
# [13] = tested on: CAKI-1 renal
# [14] = tested on: SNB-75 CNS
# [15] = tested on: MCF7 breast
# [16] = tested on: SNB-19 CNS
# [17] = tested on: A549 NSCLC
# [18] = tested on: COLO 205 colon
# [19] = tested on: U251 CNS
# [20] = tested on: SK-MEL-2 melanoma
# [21] = tested on: M14 melanoma
# [22] = tested on: DU-145 prostate
# [23] = tested on: MALME-3M melanoma
# [24] = tested on: HL-60(TB) leukemia
# [25] = tested on: OVCAR-8 ovarian
# [26] = tested on: MDA-MB-231 breast
# [27] = tested on: ACHN renal
# [28] = tested on: SK-OV-3 ovarian
# [29] = tested on: NCI-H460 lung
# [30] = tested on: K-562 leukemia
# [31] = tested on: MOLT-4 leukemia
# [32] = tested on: HOP-92 NSCLC
# [33] = tested on: LOX IMVI melanoma
# [34] = tested on: IGROV1 ovarian
# [35] = tested on: UACC-62 melanoma
# [36] = tested on: RXF 393 renal
# [37] = tested on: OVCAR-4 ovarian
# [38] = tested on: HCC-2998 colon
# [39] = tested on: HT29 colon
# [40] = tested on: SN12C renal
# [41] = tested on: BT-549 breast
# [42] = tested on: HCT-15 colon
# [43] = tested on: NCI-H226 lung
# [44] = tested on: TK-10 renal
# [45] = tested on: KM12 colon
# [46] = tested on: SK-MEL-5 melanoma
# [47] = tested on: SF-539 CNS
# [48] = tested on: NCI-H23 lung
# [49] = tested on: HCT-116 colon
# [50] = tested on: PC-3 prostate
# [51] = tested on: OVCAR-3 ovarian
# [52] = tested on: HS 578T breast
# [53] = tested on: SF-295 CNS
# [54] = tested on: UO-31 renal
# [55] = tested on: CCRF-CEM leukemia
# [56] = tested on: A498 renal
# [57] = tested on: 786-0 renal
# [58] = tested on: SK-MEL-28 melanoma
smiles,measurement,setting,value
O=C1/C(=C/c2ccc([N+](=O)[O-])cc2)Sc2scc(-c3cccc([N+](=O)[O-])c3)[n+]21,TGI,[1],11.4 µM
same,TGI,[2],33.9 µM
same,TGI,[3],24.8 µM
same,TGI,[4],15.7 µM
same,TGI,[5],18.4 µM
same,TGI,[6],25 µM
same,TGI,[7],18.4 µM
same,TGI,[8],3.35 µM
same,TGI,[9],24.3 µM
same,TGI,[10],7.75 µM
same,TGI,[11],2.69 µM
same,TGI,[12],26.3 µM
same,TGI,[13],7.03 µM
same,TGI,[14],25.6 µM
same,TGI,[15],> 38.3 µM
same,TGI,[16],31.5 µM
same,TGI,[17],56.7 µM
same,TGI,[18],3.69 µM
same,TGI,[19],25.6 µM
same,TGI,[20],30.8 µM
same,TGI,[21],17.5 µM
same,TGI,[22],23.7 µM
same,TGI,[23],3.22 µM
same,TGI,[24],1.07 µM
same,TGI,[25],> 54.9 µM
same,TGI,[26],16.5 µM
same,TGI,[27],14 µM
same,TGI,[28],30.6 µM
same,TGI,[29],26.1 µM
same,TGI,[30],8.16 µM
same,TGI,[31],> 20.1 µM
same,TGI,[32],13.8 µM
same,TGI,[33],8.03 µM
same,TGI,[34],10.7 µM
same,TGI,[35],29.9 µM
same,TGI,[36],7.94 µM
same,TGI,[37],31.4 µM
same,TGI,[38],19.1 µM
same,TGI,[39],9.35 µM
same,TGI,[40],17.3 µM
same,TGI,[41],18.7 µM
same,TGI,[42],5.75 µM
same,TGI,[43],29.9 µM
same,TGI,[44],17.8 µM
same,TGI,[45],24.6 µM
same,TGI,[46],18.6 µM
same,TGI,[47],6.44 µM
same,TGI,[48],42 µM
same,TGI,[49],18.1 µM
same,TGI,[50],26.8 µM
same,TGI,[51],15.2 µM
same,TGI,[52],48.1 µM
same,TGI,[53],29.3 µM
same,TGI,[54],22 µM
same,TGI,[55],1.3 µM
same,TGI,[56],7.98 µM
same,TGI,[57],4.96 µM
Nc1nc(Cl)cc(NCC2(CO)CC=CC2)n1,TGI,[2],> 100 µM
same,TGI,[3],> 100 µM
same,TGI,[4],> 100 µM
same,TGI,[5],> 100 µM
same,TGI,[6],> 100 µM
same,TGI,[7],> 100 µM
same,TGI,[8],> 100 µM
same,TGI,[9],> 100 µM
same,TGI,[10],> 100 µM
same,TGI,[11],> 100 µM
same,TGI,[12],> 100 µM
same,TGI,[13],> 100 µM
same,TGI,[14],> 100 µM
same,TGI,[15],> 100 µM
same,TGI,[16],> 100 µM
same,TGI,[17],> 100 µM
same,TGI,[18],> 100 µM
same,TGI,[19],> 100 µM
same,TGI,[20],> 100 µM
same,TGI,[22],> 100 µM
same,TGI,[23],> 100 µM
same,TGI,[25],> 100 µM
same,TGI,[26],> 100 µM
same,TGI,[27],> 100 µM
same,TGI,[28],> 100 µM
same,TGI,[29],> 100 µM
same,TGI,[30],> 100 µM
same,TGI,[31],> 100 µM
same,TGI,[32],> 100 µM
same,TGI,[33],> 100 µM
same,TGI,[34],> 100 µM
same,TGI,[35],> 100 µM
same,TGI,[36],> 100 µM
same,TGI,[37],> 100 µM
same,TGI,[38],> 100 µM
same,TGI,[39],> 100 µM
same,TGI,[40],> 100 µM
same,TGI,[41],> 100 µM
same,TGI,[42],> 100 µM
same,TGI,[43],> 100 µM
same,TGI,[44],> 100 µM
same,TGI,[45],> 100 µM
same,TGI,[46],> 100 µM
same,TGI,[47],> 100 µM
same,TGI,[49],> 100 µM
same,TGI,[50],> 100 µM
same,TGI,[58],> 100 µM
same,TGI,[51],> 100 µM
same,TGI,[52],> 100 µM
same,TGI,[53],> 100 µM
same,TGI,[54],> 100 µM
same,TGI,[55],> 100 µM
same,TGI,[57],> 100 µM
